Experimental data as given in patent publication US20050008558A1, “Fullerene derivatives and processes for producing the same” (Eiichi NAKAMURA, priority 2003, published 2005).
Converted amounts (≈) assume the structure as drawn.

Columns and labels:
[1] = Solubility in organic solvents at 25° C.
[2] = Oxidation test: toluene solutions allowed to stand in air at room temperature, HPLC peak area ratio; format: physicochemical; conditions: for Peak area ratio (%) of starting compound to whole peak area: toluene solution 0.33 mg/mL, in air, HPLC UV 290 nm, time 0 day (initial); for Change in peak area ratio on preservation as a solution (in words): long period of time
From the text: The stability in air of the fullerene derivatives of the present invention may be confirmed, for example, by analyzing the change in quality thereof with time by HPLC. More specifically, the stability in air can be determined as follows. That is, a toluene solution of the fullerene derivatives of the present invention which is allowed to stand in air at room temperature, is subjected to HPLC using an octadecyl-bonded silica gel column (hereinafter referred to merely as “ODS” column), an eluent composed of toluene and methanol and a UV wavelength of 290 nm to measure the rate of reduction in area ratio of a peak attributed to the fullerene derivatives to whole peaks as observed. Concretely, it can be evaluated by the stability in air of solution of fullerene derivative according to the present invention to the solution of same fullerene derivative to the present one except for having a hydrogen atom on cyclopentadiene ring of fullerene skeleton, for example, a C60Ph5CH3 solution to a C60Ph5H solution (Ph represents a phenyl group). For example, the rate of reduction in peak area ratio of the fullerene derivatives according to the present invention is usually 1/20 or lower, preferably 1/100 or lower than that of the case where one having a hydrogen atom on cyclopentadiene ring, namely C60Ph5H, is used under the same conditions.
90 mL of a toluene solution of C60Ph5H (0.33 mg/mL) and 90 mL of a toluene solution of C60Ph5Me obtained in Example 10 (0.33 mg/mL) were respectively prepared and allowed to stand in air at room temperature. The prepared solutions were sampled in an amount of 0.5 mL for each every several days, and subjected to HPLC analysis to examine the change in quality thereof with time. The HPLC analysis conditions were ODS; column size: 150 mm×4.6 mmφ; eluent: toluene/methanol=4/6; flow rate: 1.0 mL/min; detector used: UV 290 nm.

[3] = toluene solution in air, time 1 day
[4] = toluene solution in air, time 2 days
[5] = toluene solution in air, time 6 days
[6] = toluene solution in air, time 8 days
[7] = toluene solution in air, time 9 days
[8] = toluene solution in air, time 14 days
[9] = toluene solution in air, time 15 days
[10] = toluene solution in air, time 16 days
[11] = toluene solution in air, time 20 days
[12] = toluene solution in air, time 22 days
[13] = toluene solution in air, time 23 days
[14] = toluene solution in air, time 63 days

Compound	Peak area ratio (%) of starting compound to whole peak area [2] [%]	Change in peak area ratio on preservation as a solution (in words) ([2]; toluene solution in air)	Peak area ratio (%) [2, 3] [%]	Peak area ratio (%) [2, 4] [%]	Peak area ratio (%) [2, 5] [%]	Peak area ratio (%) [2, 6] [%]	Peak area ratio (%) [2, 7] [%]	Peak area ratio (%) [2, 8] [%]	Peak area ratio (%) [2, 9] [%]	Peak area ratio (%) [2, 10] [%]	Peak area ratio (%) [2, 11] [%]	Peak area ratio (%) [2, 12] [%]	Peak area ratio (%) [2, 13] [%]	Peak area ratio (%) [2, 14] [%]	further results
CCOC(=O)CCCC12C3=C4C5=C1C1(C)c6c7c8c9c(c%10c%11c%12c(c%13c%14c%15c(c%16c%17c%18c(c1c1c6c6c8c8c%19c9c%11c9c%11c%12c%14c%12c%14c%15c%17c%15c%17c%18c1c1c6c8c6c(c9%19)c(c%11%12)c(c%14%15)c6c1%17)C%162C)C3%13C)C4%10C)C57C (stereo not shown) [C60Me5—(CH2)3CO2Et, 1-(3-(ethoxycarbonyl)propyl)-6,9,12,15,18-pentamethyl-1,6,9,12,15,18-hexahydro-(C60-Ih)[5,6]fullerene]															Solubility in chloroform (CHCl3) ([1]; CHCl3, 25° C.): 35.9 mg/mL (≈ 39.4 mM); Solubility in N,N-dimethylformamide (DMF) ([1]; DMF, 25° C.): 15.4 mg/mL (≈ 16.9 mM); Solubility in ethyl acetate (EtOAc) ([1]; EtOAc, 25° C.): 3.9 mg/mL (≈ 4.28 mM); Solubility in tetrahydrofuran (THF) ([1]; THF, 25° C.): 103.0 mg/mL (≈ 113 mM)
c1ccc(C23C4=C5C6C7=C4C4(c8ccccc8)c8c2c2c9c3c3c%10c%11c(c%12c%13c%14c(c%15c%16c%17c(c4c4c8c8c2c2c%18c9c%10c9c%10c%11c%13c%11c%13c%14c%16c%14c%16c%17c4c4c8c2c2c(c%189)c(c%10%11)c(c%14%13)c2c4%16)C7%15c2ccccc2)C%126c2ccccc2)C53c2ccccc2)cc1 (stereo not shown) [Example C60Ph5H]	98.5	considerable reduction in peak area ratio	97.5	96.7	94.4	93.2	92.9	90.6	90.1	89.6	88.6	87.4	87.4	70.1	Rate of reduction of the peak area ratio ([2]; toluene solution in air): about 0.45 % per day; Peak area ratio (%) ([2]; toluene solution in air, time 5 days): 95.0%; Peak area ratio (%) ([2]; toluene solution in air, time 12 days): 92.0%; Peak area ratio (%) ([2]; toluene solution in air, time 13 days): 91.7%; Peak area ratio (%) ([2]; toluene solution in air, time 26 days): 85.9%; Peak area ratio (%) ([2]; toluene solution in air, time 30 days): 84.3%; Peak area ratio (%) ([2]; toluene solution in air, time 33 days): 81.5%; Peak area ratio (%) ([2]; toluene solution in air, time 37 days): 80.4%; Peak area ratio (%) ([2]; toluene solution in air, time 43 days): 78.9%; Peak area ratio (%) ([2]; toluene solution in air, time 51 days): 74.1%; Peak area ratio (%) ([2]; toluene solution in air, time 58 days): 71.4%; Peak area ratio (%) ([2]; toluene solution in air, time 65 days): 70.1%
CC12C3=C4C5=C1C1(c6ccccc6)c6c7c8c9c(c%10c%11c%12c(c%13c%14c%15c(c%16c%17c%18c(c1c1c6c6c8c8c%19c9c%11c9c%11c%12c%14c%12c%14c%15c%17c%15c%17c%18c1c1c6c8c6c(c9%19)c(c%11%12)c(c%14%15)c6c1%17)C%162c1ccccc1)C3%13c1ccccc1)C4%10c1ccccc1)C57c1ccccc1 (stereo not shown) [Example C60Ph5Me, 1-methyl-6,9,12,15,18-pentaphenyl-1,6,9,12,15,18-hexahydro-(C60-Ih)[5,6]fullerene]	98.8	kept substantially unchanged	98.4	98.9	98.4	98.7	98.5	98.3	98.9	98.4	98.4	97.1	97.4	98.3	Peak area ratio (%) ([2]; toluene solution in air, time 3 days): 98.8%; Peak area ratio (%) ([2]; toluene solution in air, time 7 days): 98.3%; Peak area ratio (%) ([2]; toluene solution in air, time 10 days): 98.0%; Peak area ratio (%) ([2]; toluene solution in air, time 21 days): 98.4%; Peak area ratio (%) ([2]; toluene solution in air, time 25 days): 98.5%; Peak area ratio (%) ([2]; toluene solution in air, time 31 days): 97.9%; Peak area ratio (%) ([2]; toluene solution in air, time 38 days): 98.2%; Peak area ratio (%) ([2]; toluene solution in air, time 48 days): 98.1%
